Measured values: US12600728B2, “Interleukin-17 inhibitors” (priority 2020, dated 2026)
Where two headings read alike, the source gives them in different places.

Columns and labels:
[1] = biological target: biotinylated human IL-17A / AF647-labeled human IL-17RA (Homo sapiens, UniProt Q16552); assay: Human IL-17A×IL-17RA TR-FRET assay; format: binding
Summary of the method: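 Compounds tested in duplicate at each concentration; neutral controls contain all components with DMSO in place of compound.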

[2] = biological target: recombinant human IL-17AA (Homo sapiens, UniProt Q16552); assay: IL-6 release from NHDF cells, IL-17AA plus TNF-α stimulation; format: cell-based; conditions: 24 hours, IL-6 by ELISA
Sequence of recombinant human IL-17AA (Q16552 24-155): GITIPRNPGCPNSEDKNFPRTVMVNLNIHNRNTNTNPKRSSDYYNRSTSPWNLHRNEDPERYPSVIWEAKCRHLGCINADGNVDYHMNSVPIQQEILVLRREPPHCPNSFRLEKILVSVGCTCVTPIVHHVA
Summary of the method: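 IL-17-specific IL-6 release from NHDF cells adhered overnight; compounds pre-incubated 30 min at room temperature with human IL-17AA plus TNF-α, then 24 h on cells at 37° C. Final DMSO 0.1% or plasma 20%; IL-6 by ELISA (450 nm). TNF-α-only IL-6 subtracted before IC50 fit.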

[3] = TR-FRET, biotinylated human IL-17A 5 nM, AF647-labeled human IL-17RA 30 nM, read-out: IL17AA FRET/ IL17Rawt IC50
[4] = NHDF cells, IL-17AA 30 pM plus TNF-α 6 pM, read-out: IL17AA + TNF IC50 IL-6
[5] = TR-FRET, 5 nM IL-17A, 30 nM IL-17RA, read-out: IL17AA FRET/ IL17Rawt IC50
[6] = NHDF cells, IL-17AA 30 pM + TNF-α 6 pM, read-out: IL17AA + TNF IC50 IL-6

Sequence of biotinylated human IL-17A / AF647-labeled human IL-17RA (Q16552 24-155): as above

Row | Structure (SMILES) | IC50 [1, 3] [nM] | IC50 [2, 4] [nM] | further results
1 | Cc1c(-c2ccc(NC(=O)[C@@H](NC(=O)c3ccc4n3CCN(C3COC3)C4)C3CCCCC3)cc2F)c(Cl)cc[n+]1[O-] [Example 133, 4-chloro-3-(4-((S)-2-cyclohexyl-2-(2-(oxetan-3-yl)-1,2,3,4-tetrahydropyrrolo[1,2-a]pyrazine-6-carboxamido)acetamido)-2-fluorophenyl)-2-methylpyridine 1-oxide] | 99 | 17 | 
2 | CC(=O)N1CCn2c(ccc2C(=O)N[C@H](C(=O)Nc2ccc(-c3c(Cl)cc[n+]([O-])c3C)c(F)c2)C2CCCCCC2)C1 [Example 134, 3-(4-((S)-2-(2-acetyl-1,2,3,4-tetrahydropyrrolo[1,2-a]pyrazine-6-carboxamido)-2-cycloheptylacetamido)-2-fluorophenyl)-4-chloro-2-methylpyridine 1-oxide] | 72.8 | 7 | 
3 | Cc1cc[n+]([O-])c(C)c1-c1ccc(NC(=O)[C@@H](NC(=O)c2ccc3n2CCNC3)C2CCCCCC2)cc1 [Example 202, (S)-3-(4-(2-cycloheptyl-2-(1,2,3,4-tetrahydropyrrolo[1,2-a]pyrazine-6-carboxamido)acetamido)phenyl)-2,4-dimethylpyridine 1-oxide] |  |  | IC50 [1, 5]: 257 nM; IC50 [2, 6]: 73 nM
4 | Cc1cc[n+]([O-])c(C)c1-c1ccc(NC(=O)C(NC(=O)c2conc2C)C2CCC(C(F)(F)F)CC2)cc1 [Example 23, 2,4-dimethyl-3-(4-((S)-2-(3-methylisoxazole-4-carboxamido)-2-((1r,4S)-4-(trifluoromethyl)cyclohexyl)acetamido)phenyl)pyridine 1-oxide] | 60 | 6 | 
5 | Cc1c[n+]([O-])cc(C)c1-c1ccc(NC(=O)[C@@H](NC(=O)c2ccnn2C)C2CCCCCC2)cc1 [Example 99, (S)-4-(4-(2-cycloheptyl-2-(1-methyl-1H-pyrazole-5-carboxamido)acetamido)phenyl)-3,5-dimethylpyridine 1-oxide] | 208 | 81 | 
6 | Cc1c[n+]([O-])cc(C)c1-c1ccc(NC(=O)[C@@H](NC(=O)c2ccnn2C2CC2)C2CCCCCC2)cc1 [Example 100, (S)-4-(4-(2-cycloheptyl-2-(1-cyclopropyl-1H-pyrazole-5-carboxamido)acetamido)phenyl)-3,5-dimethylpyridine 1-oxide] | 243 | 46 | 
7 | CC(=O)N1CCn2c(ccc2C(=O)NC(C(=O)Nc2ccc(-c3c(Cl)cc[n+]([O-])c3C)c(F)c2)[C@H]2C[C@@H]3C[C@@H]3C2)C1 (stereo partly drawn) [Example 194, 3-(4-(2-(2-acetyl-1,2,3,4-tetrahydropyrrolo[1,2-a]pyrazine-6-carboxamido)-2-((1R,3s,5S)-bicyclo[3.1.0]hexan-3-yl)acetamido)-2-fluorophenyl)-4-chloro-2-methylpyridine 1-oxide] |  |  | IC50 [1, 5]: 165 nM; IC50 [2, 6]: 47 nM
8 | Cc1cc[n+]([O-])c(C)c1-c1ccc(NC(=O)[C@H](Cc2ccccc2Cl)NC(=O)c2conc2C)cc1 [Example 38, (S)-3-(4-(3-(2-chlorophenyl)-2-(3-methylisoxazole-4-carboxamido)propanamido)phenyl)-2,4-dimethylpyridine 1-oxide] | 17 | 131 | 
9 | CCn1nccc1C(=O)N[C@H](C(=O)Nc1ccc(-c2cc(Cl)c[n+]([O-])c2C)cc1)C1CCC(F)(F)CC1 [Example 170, (S)-5-chloro-3-(4-(2-(4,4-difluorocyclohexyl)-2-(1-ethyl-1H-pyrazole-5-carboxamido)acetamido)phenyl)-2-methylpyridine 1-oxide] |  |  | IC50 ([1]; IL17AA FRET/ IL17Rawt IC50, TR-FRET, 5 nM IL-17A, 30 nM IL-17RA): 402 nM; IC50 ([2]; IL17AA + TNF IC50 IL-6, NHDF cells, IL-17AA 30 pM + TNF-α 6 pM): 231 nM
10 | Cc1nocc1C(=O)N[C@H](C(=O)Nc1ccc(-c2c(C(F)(F)F)cc[n+]([O-])c2C)cc1)[C@H]1CCCC(F)(F)C1 [Example 9, 3-(4-((S)-2-((S)-3,3-difluorocyclohexyl)-2-(3-methylisoxazole-4-carboxamido)acetamido)phenyl)-2-methyl-4-(trifluoromethyl)pyridine 1-oxide] | 60 | 4 | 
11 | Cc1cc[n+]([O-])c(C)c1-c1ccc(NC(=O)[C@H](Cc2ccccc2)NC(=O)c2conc2C)cc1 [Example 74, (S)-2,4-dimethyl-3-(4-(2-(3-methylisoxazole-4-carboxamido)-3-phenylpropanamido)phenyl)pyridine 1-oxide] | 1530 | > 10000 | 
12 | Cc1cc[n+]([O-])c(C)c1-c1ccc(NC(=O)[C@@H](NC(=O)c2ccnn2C)[C@H]2CC=C(F)CC2)cc1 (single isomer, unassigned) [Example 12b, 3-(4-((S)-2-((R)-4-fluorocyclohex-3-en-1-yl)-2-(1-methyl-1H-pyrazole-5-carboxamido)acetamido)phenyl)-2,4-dimethylpyridine 1-oxide or 3-(4-((S)-2-((S)-4-fluorocyclohex-3-en-1-yl)-2-(1-methyl-1H-pyrazole-5-carboxamido)acetamido)phenyl)-2,4-dimethylpyridine 1-oxide] | 151 | 8 | 
13 | Cc1cc[n+]([O-])c(C)c1-c1ccc(NC(=O)C(NC(=O)c2ccc3n2CCN(C)C3)C2CC3CC3C2)cc1 (single isomer, unassigned) [Example 192] |  |  | IC50 [1, 5]: 151 nM; IC50 [2, 6]: 142 nM
14 | Cc1nscc1C(=O)N[C@H](C(=O)Nc1ccc(-c2c(Cl)cc[n+]([O-])c2C)c(F)c1)C1CCCCC1 [Example 17, 4-chloro-3-(4-((S)-2-cyclohexyl-2-(3-methylisothiazole-4-carboxamido)acetamido)-2-fluorophenyl)-2-methylpyridine 1-oxide] | 118 | 18 | 
15 | Cc1cc[n+]([O-])c(C)c1-c1ccc(NC(=O)[C@@H](NC(=O)c2ccc3n2CCN(C)C3)C2CC=C(F)CC2)cc1 (stereo partly drawn) [Example 128, 3-(4-((2S)-2-(4-fluorocyclohex-3-en-1-yl)-2-(2-methyl-1,2,3,4-tetrahydropyrrolo[1,2-a]pyrazine-6-carboxamido)acetamido)phenyl)-2,4-dimethylpyridine 1-oxide] | 299 | 54 | 
16 | Cc1cc[n+]([O-])c(C)c1-c1ccc(NC(=O)C(NC(=O)c2ccnn2C(C)C)C2CCCC(F)(F)C2)cc1 (centres unmarked) [Example 161, 3-(4-(2-(3,3-difluorocyclohexyl)-2-(1-isopropyl-1H-pyrazole-5-carboxamido)acetamido)phenyl)-2,4-dimethylpyridine 1-oxide] |  |  | IC50 [1, 5]: 130 nM; IC50 [2, 6]: 20.5 nM
17 | Cc1cc(-c2ccc(NC(=O)[C@@H](NC(=O)c3conc3C)C3CCC(F)(F)CC3)cc2)c(C)[n+]([O-])c1 [Example 169, (S)-3-(4-(2-(4,4-difluorocyclohexyl)-2-(3-methylisoxazole-4-carboxamido)acetamido)phenyl)-2,5-dimethylpyridine 1-oxide] |  |  | IC50 [1, 5]: 391 nM; IC50 [2, 6]: 339 nM
18 | Cc1c(-c2ccc(NC(=O)[C@@H](NC(=O)c3ccnn3C)C3CCC(F)(F)CC3)cc2)c(C(F)(F)F)cc[n+]1[O-] [Example 27, (S)-3-(4-(2-(4,4-difluorocyclohexyl)-2-(1-methyl-1H-pyrazole-5-carboxamido)acetamido)phenyl)-2-methyl-4-(trifluoromethyl)pyridine 1-oxide] | 121 | 115 | 
19 | Cc1c[n+]([O-])cc(C)c1-c1ccc(NC(=O)[C@@H](NC(=O)c2ccnn2C2CCC2)C2CCCCCC2)cc1 [Example 102, (S)-4-(4-(2-(1-cyclobutyl-1H-pyrazole-5-carboxamido)-2-cycloheptylacetamido)phenyl)-3,5-dimethylpyridine 1-oxide] | 123 | 17 | 
